# In patent US3978045A, “N^2 -dansyl-L-arginine derivatives, and the pharmaceutically acceptable acid addition salts thereof” (priority 1973, dated 1976):
# Where a name gives a salt, the structure may show the parent alone. Residues, ends and D or L forms follow the SMILES beside them. *: point of attachment. Dansyl = CN(C)c1cccc2c(S(=O)(=O)*)cccc12; Pyrrolidide = C1CCN(*)C1
# Molecular target: T1, thrombin (Bos taurus, UniProt P00735)
# T1 construct: mature alpha-thrombin (light plus heavy chain) cut from prothrombin
# Test: Fibrinogen coagulation time (thrombin-induced clotting of fibrinogen)
# Assay type: biochemical
# Settings: bovine fibrinogen, borate saline buffer pH 7.4, thrombin 0.1 ml of 5 units/ml, 25°C; control coagulation time 50-55 seconds; read-out: Concentration required to prolong the coagulation time by a factor of 2
# Method: The antithrombotic activities of the N^2 -dansyl-L-arginine derivatives of this invention were compared with those of a known antithrombotic agent, (N^2 -(p-tolylsulfonyl)-L-arginine methyl ester). by determining the fibrinogen coagulation time. The measurement of the fibrinogen coagulation time was conducted as follows:
# Immediately after mixing, the reaction mixture was transferred from the ice bath to a bath thermostated at 25°C. Coagulation times were taken as the period between the time of transference to the 25°C bath and the time of the first appearance of fibrin threads.
# The term "concentration required to prolong the coagulation time by a factor of two" is the concentration of an active ingredient required to prolong the normal coagulation time 50-55 seconds to 100-110 seconds.
row,SMILES,IC (2-fold clotting time)
1,"CCCOC(=O)[C@H](CCCNC(=N)N)NS(=O)(=O)c1cccc2c(N(C)C)cccc12 [Sample 3, N^2 -dansyl-L-arginine n-propyl ester]",2 µM
2,"CC(C)COC(=O)[C@H](CCCNC(=N)N)NS(=O)(=O)c1cccc2c(N(C)C)cccc12 [Sample 6, N^2 -dansyl-L-arginineisobutyl ester di(p-toluene sulfonate)]",110 µM
3,"CN(C)c1cccc2c(S(=O)(=O)N[C@@H](CCCNC(=N)N)C(=O)OCCCCCl)cccc12 [Sample 18, N^2-dansyl-L-arginine 4-chlorobutyl ester]",7 µM
4,"CCNC(=O)[C@H](CCCNC(=N)N)NS(=O)(=O)c1cccc2c(N(C)C)cccc12 [Sample 20, N^2 -dansyl-N-ethyl-L-argininamide monohydrate]",100 µM
5,"CCCNC(=O)[C@H](CCCNC(=N)N)NS(=O)(=O)c1cccc2c(N(C)C)cccc12 [Sample 21, N^2 -dansyl-N-(n-propyl)-L-argininamide monohydrate]",15 µM
6,"CCCCCCNC(=O)[C@H](CCCNC(=N)N)NS(=O)(=O)c1cccc2c(N(C)C)cccc12 [Sample 24, N^2 -dansyl-N-(n-hexyl)-L-argininamide monohydrate]",20 µM
7,"CC(C)NC(=O)[C@H](CCCNC(=N)N)NS(=O)(=O)c1cccc2c(N(C)C)cccc12 [Sample 26, N^2 -dansyl-N-isopropyl-L-argininamide]",1000 µM
8,"CC(C)CNC(=O)[C@H](CCCNC(=N)N)NS(=O)(=O)c1cccc2c(N(C)C)cccc12 [Sample 27, N^2 -dansyl-N-isobutyl-L-argininamide]",100 µM
9,"CCOCCNC(=O)[C@H](CCCNC(=N)N)NS(=O)(=O)c1cccc2c(N(C)C)cccc12 [Sample 30, N^2-dansyl-N-(2-ethoxyethyl)-L-argininamide]",5 µM
10,"COC(=O)CCNC(=O)[C@H](CCCNC(=N)N)NS(=O)(=O)c1cccc2c(N(C)C)cccc12 [Sample 32, N^2-dansyl-N-(2-methoxycarbonylethyl)-L-argininamide]",22 µM
11,"CCOC(=O)CCNC(=O)[C@H](CCCNC(=N)N)NS(=O)(=O)c1cccc2c(N(C)C)cccc12 [Sample 33, N^2-dansyl-N-(2-ethoxycarbonylethyl)-L-argininamide diacetate]",5 µM
12,CCOC(=O)CCCNC(=O)[C@H](CCCNC(=N)N)NS(=O)(=O)c1cccc2c(N(C)C)cccc12 [Sample 34],500 µM
13,"CN(C)c1cccc2c(S(=O)(=O)N[C@@H](CCCNC(=N)N)C(=O)NCC3CCCCC3)cccc12 [Sample 37, N^2 -dansyl-N-cyclohexylmethyl-L-argininamide]",40 µM
14,"CN(C)c1cccc2c(S(=O)(=O)N[C@@H](CCCNC(=N)N)C(=O)NCCc3ccccc3)cccc12 [Sample 40, N^2 -dansyl-N-(β-phenylethyl)-L-argininamide dihydrate]",150 µM
15,"CN(C)c1cccc2c(S(=O)(=O)N[C@@H](CCCNC(=N)N)C(=O)NCCC(=O)Nc3ccccc3)cccc12 [Sample 42, N^2-dansyl-N-(2-phenylcarbamoylethyl)-L-argininamide diacetate]",> 500 µM
16,CN(C)c1cccc2c(S(=O)(=O)N[C@@H](CCCNC(=N)N)C(=O)NCC(=O)N3CCCC3)cccc12 [Sample 43] (Dansyl-Arg-Gly-Pyrrolidide),370 µM

# Now from value to compound:
row,IC (2-fold clotting time),SMILES
1,8 µM,"CCOC(=O)[C@H](CCCNC(=N)N)NS(=O)(=O)c1cccc2c(N(C)C)cccc12 [Sample 2, N^2 -dansyl-L-arginine ethyl ester dihydrochloride]"
2,30 µM,"CC(C)OC(=O)[C@H](CCCNC(=N)N)NS(=O)(=O)c1cccc2c(N(C)C)cccc12 [Sample 4, N^2 -dansyl-L-arginine isopropyl ester dihydrochloride]"
3,2 µM,"CC=CCOC(=O)[C@H](CCCNC(=N)N)NS(=O)(=O)c1cccc2c(N(C)C)cccc12 [Sample 12, N^2 -dansyl-L-arginine crotyl ester]"
4,4 µM,"C#CCCOC(=O)[C@H](CCCNC(=N)N)NS(=O)(=O)c1cccc2c(N(C)C)cccc12 [Sample 13, N^2-dansyl-L-arginine 3-butynyl ester]"
5,60 µM,CN(C)c1cccc2c(S(=O)(=O)N[C@@H](CCCNC(=N)N)C(=O)OC3CCCCC3)cccc12 [Sample 14]
6,20 µM,CN(C)c1cccc2c(S(=O)(=O)N[C@@H](CCCNC(=N)N)C(=O)OCC3CCCO3)cccc12 (stereo partly shown) [Sample 15]
7,5 µM,"COCCOC(=O)[C@H](CCCNC(=N)N)NS(=O)(=O)c1cccc2c(N(C)C)cccc12 [Sample 16, N^2-dansyl-L-arginine 2-methoxyethyl ester]"
8,200 µM,CCC(COC(=O)[C@H](CCCNC(=N)N)NS(=O)(=O)c1cccc2c(N(C)C)cccc12)[N+](=O)[O-] (stereo partly shown) [Sample 19]
9,25 µM,"CCCCNC(=O)[C@H](CCCNC(=N)N)NS(=O)(=O)c1cccc2c(N(C)C)cccc12 [Sample 22, N^2 -dansyl-N-(n-butyl)-L-argininamide monohydrate]"
10,125 µM,CCCCCNC(=O)[C@H](CCCNC(=N)N)NS(=O)(=O)c1cccc2c(N(C)C)cccc12 [Sample 23]
11,100 µM,"CCCCCCCNC(=O)[C@H](CCCNC(=N)N)NS(=O)(=O)c1cccc2c(N(C)C)cccc12 [Sample 25, N^2 -dansyl-N-(n-heptyl)-L-argininamide]"
12,4 µM,"COCCNC(=O)[C@H](CCCNC(=N)N)NS(=O)(=O)c1cccc2c(N(C)C)cccc12 [Sample 28, N^2-dansyl-N-(2-methoxyethyl)-L-argininamide dihydrate]"
13,65 µM,COCCCNC(=O)[C@H](CCCNC(=N)N)NS(=O)(=O)c1cccc2c(N(C)C)cccc12 [Sample 29]
14,160 µM,"CCOC(=O)CNC(=O)[C@H](CCCNC(=N)N)NS(=O)(=O)c1cccc2c(N(C)C)cccc12 [Sample 31, N^2-dansyl-N-(2-ethoxycarbonylmethyl)-L-argininamide diacetate] (Dansyl-Arg-Gly-OEt)"
15,10 µM,"C=CCNC(=O)[C@H](CCCNC(=N)N)NS(=O)(=O)c1cccc2c(N(C)C)cccc12 [Sample 35, N^2 -dansyl-N-allyl-L-argininamide]"
16,200 µM,CN(C)c1cccc2c(S(=O)(=O)N[C@@H](CCCNC(=N)N)C(=O)NC3CC3)cccc12 [Sample 36]
17,100 µM,CN(C)c1cccc2c(S(=O)(=O)N[C@@H](CCCNC(=N)N)C(=O)Nc3ccccc3)cccc12 [Sample 38]
18,50 µM,CN(C)c1cccc2c(S(=O)(=O)N[C@@H](CCCNC(=N)N)C(=O)NCc3ccccc3)cccc12 [Sample 39]
19,27 µM,CN(C)c1cccc2c(S(=O)(=O)N[C@@H](CCCNC(=N)N)C(=O)NCCCc3ccccc3)cccc12 [Sample 41]
20,55 µM,"CCN(CC)C(=O)[C@H](CCCNC(=N)N)NS(=O)(=O)c1cccc2c(N(C)C)cccc12 [Sample 45, N^2 -dansyl-N,N-diethyl-L-argininamide diacetate]"
21,39 µM,CCCCN(CCCC)C(=O)[C@H](CCCNC(=N)N)NS(=O)(=O)c1cccc2c(N(C)C)cccc12 [Sample 46]
